Test results from patent US11690810B2, “Combination treatment of bacterial infection” (The Chinese University of Hong Kong, priority 2018, dated 2023).

Key:
Experiment in all cases: MIC and checkerboard (FIC) assay
HA MRSA W232 = tested on: HA MRSA W232
CA MRSA W113 = tested on: CA MRSA W113
CA MRSA W103 = tested on: CA MRSA W103
MRSA SA-ST239 = tested on: MRSA SA-ST239
CA MRSA W47 = tested on: CA MRSA W47
[1] = tested on: clinical fusidic acid resistant MRSA strain 73621; assay type: cell-based, Staphylococcus aureus; details: for FIC / MIC combine: 73621
CA MRSA W106 = tested on: CA MRSA W106
[2] = tested on: S. aureus SA-ANT4′ (ANT4), resistant to fusidic acid; details: for FIC / MIC combine: ANT4
HA MRSA W235 = tested on: HA MRSA W235
HA MRSA W239 = tested on: HA MRSA W239
HA MRSA W238 = tested on: HA MRSA W238
CA MRSA W44 = tested on: CA MRSA W44
[3] = tested on: clinical fusidic acid resistant MRSA strain 96591; assay type: cell-based, Staphylococcus aureus; details: for FIC / MIC combine: 96591
CA MRSA W48 = tested on: CA MRSA W48
CA MRSA W101 = tested on: CA MRSA W101
HA MRSA W233 = tested on: HA MRSA W233
[4] = tested on: S. aureus SA-APH2″-AAC6′ (APH2), resistant to gentamicin
CA MRSA W45 = tested on: CA MRSA W45
[5] = Staphylococcus aureus, MRSA, read-out: MIC alone
[6] = ST239, ECG with WQD-169 (Kuraridin)
[7] = Staphylococcus aureus, read-out: MIC 99.9
[8] = Staphylococcus aureus, read-out: MIC alone
[9] = APH2″-AAC6′, ECG with WQD-169 (Kuraridin)

`O=C(O[C@@H]1Cc2c(O)cc(O)cc2O[C@@H]1c1ccc(O)c(O)c1)c1cc(O)c(O)c(O)c1` [ECG, epicatechin gallate] gave an MIC (HA MRSA W232; [5]) of 512 µg/mL, an FIC (HA MRSA W232; W232, ECG with Kur) of 0.008 and an MIC combine (HA MRSA W232; W232, ECG with Kur) of 4 µg/mL. The FIC (HA MRSA W232; W232, ECG+Kur+Van) was 0.03, the MIC combine (HA MRSA W232; W232, ECG+Kur+Van) was 8 µg/mL and the MIC alone (HA MRSA W232; W232, Table 5) was 512 µg/mL. It also gave an MIC (CA MRSA W113; [5]) of 512 µg/mL, an FIC (CA MRSA W113; W113, ECG with Kur) of 0.002 and an MIC combine (CA MRSA W113; W113, ECG with Kur) of 1 µg/mL. For the same compound, the MIC (CA MRSA W103; [5]) was 512 µg/mL, the FIC (CA MRSA W103; W103, ECG with Kur) was 0.002 and the MIC combine (CA MRSA W103; W103, ECG with Kur) was 1 µg/mL. It also gave an FIC (MRSA SA-ST239; ST239, ECG with Kur) of 0.004, an MIC combine (MRSA SA-ST239; ST239, ECG with Kur) of 2 µg/mL and an FIC (MRSA SA-ST239; ST239, ECG with WQD-164) of 0.001. It also gave an MIC combine (MRSA SA-ST239; ST239, ECG with WQD-164) of 2 µg/mL, an FIC (MRSA SA-ST239; ST239, ECG with WQD-165) of 0.0009 and an MIC combine (MRSA SA-ST239; ST239, ECG with WQD-165) of 0.5 µg/mL. The FIC (MRSA SA-ST239; [6]) was 0.007, the MIC combine (MRSA SA-ST239; [6]) was 4 µg/mL and the FIC (MRSA SA-ST239; ST239, ECG with WQD-175) was 0.0009. For the same compound, the MIC combine (MRSA SA-ST239; ST239, ECG with WQD-175) was 0.5 µg/mL, the FIC (MRSA SA-ST239; ST239, ECG+Kur+Van) was 0.0004 and the MIC combine (MRSA SA-ST239; ST239, ECG+Kur+Van) was 0.25 µg/mL. The MIC alone (MRSA SA-ST239; ST239, Table 5) was 512 µg/mL, the MIC90 (MRSA SA-ST239; Staphylococcus aureus, MRSA) was 16 µg/mL and the MIC99 (MRSA SA-ST239; Staphylococcus aureus, MRSA, read-out: MIC 99.9) was > 512 µg/mL. The MIC (MRSA SA-ST239; [5]) was 512 µg/mL, the MIC alone (MRSA SA-ST239; Strain ST239, Table 9) was 512 µg/mL and the MIC (CA MRSA W47; [5]) was 512 µg/mL. For the same compound, the FIC (CA MRSA W47; W47, ECG with Kur) was 0.004, the MIC combine (CA MRSA W47; W47, ECG with Kur) was 2 µg/mL and the FIC (CA MRSA W47; W47, ECG+Kur+Van) was 0.0004. The MIC combine (CA MRSA W47; W47, ECG+Kur+Van) was 0.25 µg/mL, the MIC alone (CA MRSA W47; W47, Table 5) was 512 µg/mL and the FIC ([1]; ECG+Kur+Fus) was 0.004. For the same compound, the MIC combine ([1]; ECG+Kur+Fus) was 0.25 µg/mL, the FIC ([1]; ECG+Kur, no Fus) was 0.003 and the MIC combine ([1]; ECG+Kur, no Fus) was 16 µg/mL. The MIC [1, 5] was 512 µg/mL, the MIC (CA MRSA W106; [5]) was 512 µg/mL and the FIC (CA MRSA W106; W106, ECG with Kur) was 0.002. For the same compound, the MIC combine (CA MRSA W106; W106, ECG with Kur) was 1 µg/mL, the MIC alone ([2]; ANT4 (fusidic acid resistant)) was 512 µg/mL and the FIC ([2]; ECG+Kur+Fus) was 0.0007. For the same compound, the MIC combine ([2]; ECG+Kur+Fus) was 4 µg/mL, the FIC ([2]; ECG+Kur, no Fus) was 0.03 and the MIC combine ([2]; ECG+Kur, no Fus) was 16 µg/mL. The FIC ([2]; Kuraridin with ECG) was 0.03, the MIC combine ([2]; Kuraridin with ECG) was 16 µg/mL and the MIC90 ([2]; Staphylococcus aureus) was 8 µg/mL. For the same compound, the MIC99 [2, 7] was > 512 µg/mL, the MIC [2, 8] was 512 µg/mL and the MIC (HA MRSA W235; [5]) was 512 µg/mL. The FIC (HA MRSA W235; W235, ECG with Kur) was 0.002, the MIC combine (HA MRSA W235; W235, ECG with Kur) was 1 µg/mL and the MIC (HA MRSA W239; [5]) was 512 µg/mL. The FIC (HA MRSA W239; W239, ECG with Kur) was 0.002, the MIC combine (HA MRSA W239; W239, ECG with Kur) was 1 µg/mL and the FIC (HA MRSA W239; W239, ECG+Kur+Van) was 0.0009. For the same compound, the MIC combine (HA MRSA W239; W239, ECG+Kur+Van) was 0.5 µg/mL, the MIC alone (HA MRSA W239; W239, Table 5) was 512 µg/mL and the MIC (HA MRSA W238; [5]) was 512 µg/mL. It also gave an MIC alone (HA MRSA W238; W238 (gentamicin resistant)) of 512 µg/mL, an FIC (HA MRSA W238; W238, ECG with Kur) of 0.002 and an MIC combine (HA MRSA W238; W238, ECG with Kur) of 1 µg/mL. The FIC (HA MRSA W238; W238, ECG+Kur+Gen) was 0.0004, the MIC combine (HA MRSA W238; W238, ECG+Kur+Gen) was 0.25 µg/mL and the FIC (HA MRSA W238; W238, ECG+Kur+Van) was 0.0004. For the same compound, the MIC combine (HA MRSA W238; W238, ECG+Kur+Van) was 0.25 µg/mL, the FIC (HA MRSA W238; W238, ECG+Kur, no Gen) was 0.0004 and the MIC combine (HA MRSA W238; W238, ECG+Kur, no Gen) was 0.5 µg/mL. The MIC alone (HA MRSA W238; W238, Table 5) was 512 µg/mL, the MIC (CA MRSA W44; [5]) was 512 µg/mL and the FIC (CA MRSA W44; W44, ECG with Kur) was 0.004. The MIC combine (CA MRSA W44; W44, ECG with Kur) was 2 µg/mL, the FIC (CA MRSA W44; W44, ECG+Kur+Van) was 0.0004 and the MIC combine (CA MRSA W44; W44, ECG+Kur+Van) was 0.25 µg/mL. It also gave an MIC alone (CA MRSA W44; W44, Table 5) of 512 µg/mL, an FIC ([3]; ECG+Kur+Fus) of 0.002 and an MIC combine ([3]; ECG+Kur+Fus) of 0.25 µg/mL. For the same compound, the FIC ([3]; ECG+Kur, no Fus) was 0.003, the MIC combine ([3]; ECG+Kur, no Fus) was 16 µg/mL and the MIC [3, 5] was 512 µg/mL. For the same compound, the MIC (CA MRSA W48; [5]) was 512 µg/mL, the FIC (CA MRSA W48; W48, ECG with Kur) was 0.002 and the MIC combine (CA MRSA W48; W48, ECG with Kur) was 1 µg/mL. It also gave an FIC (CA MRSA W48; W48, ECG+Kur+Van) of 0.002, an MIC combine (CA MRSA W48; W48, ECG+Kur+Van) of 1 µg/mL and an MIC alone (CA MRSA W48; W48, Table 5) of 512 µg/mL. The MIC (CA MRSA W101; [5]) was 512 µg/mL, the FIC (CA MRSA W101; W101, ECG with Kur) was 0.002 and the MIC combine (CA MRSA W101; W101, ECG with Kur) was 1 µg/mL. It also gave an MIC (HA MRSA W233; [5]) of 512 µg/mL, an MIC alone (HA MRSA W233; W233 (gentamicin resistant)) of 512 µg/mL and an FIC (HA MRSA W233; W233, ECG with Kur) of 0.004. For the same compound, the MIC combine (HA MRSA W233; W233, ECG with Kur) was 2 µg/mL, the FIC (HA MRSA W233; W233, ECG+Kur+Gen) was 0.0005 and the MIC combine (HA MRSA W233; W233, ECG+Kur+Gen) was 0.25 µg/mL. For the same compound, the FIC (HA MRSA W233; W233, ECG+Kur+Van) was 0.03, the MIC combine (HA MRSA W233; W233, ECG+Kur+Van) was 8 µg/mL and the FIC (HA MRSA W233; W233, ECG+Kur, no Gen) was 0.03. For the same compound, the MIC combine (HA MRSA W233; W233, ECG+Kur, no Gen) was 16 µg/mL, the MIC alone (HA MRSA W233; W233, Table 5) was 512 µg/mL and the MIC alone ([4]; APH2 (gentamicin resistant)) was 512 µg/mL. It also gave an FIC ([4]; APH2, ECG+Kur+Gen) of 0.0005, an MIC combine ([4]; APH2, ECG+Kur+Gen) of 0.25 µg/mL and an FIC ([4]; APH2, ECG+Kur, no Gen) of 0.0009. For the same compound, the MIC combine ([4]; APH2, ECG+Kur, no Gen) was 0.5 µg/mL, the FIC ([4]; APH2, Kuraridin with ECG) was 0.0009 and the MIC combine ([4]; APH2, Kuraridin with ECG) was 0.5 µg/mL. The FIC ([4]; APH2″-AAC6′, ECG with WQD-164) was 0.001, the MIC combine ([4]; APH2″-AAC6′, ECG with WQD-164) was 1 µg/mL and the FIC ([4]; APH2″-AAC6′, ECG with WQD-165) was 0.0009. For the same compound, the MIC combine ([4]; APH2″-AAC6′, ECG with WQD-165) was 0.5 µg/mL, the FIC [4, 9] was 0.007 and the MIC combine [4, 9] was 4 µg/mL. For the same compound, the FIC ([4]; APH2″-AAC6′, ECG with WQD-175) was 0.0009, the MIC combine ([4]; APH2″-AAC6′, ECG with WQD-175) was 0.5 µg/mL and the MIC90 ([4]; Staphylococcus aureus) was 8 µg/mL. The MIC99 [4, 7] was > 512 µg/mL, the MIC [4, 8] was 512 µg/mL and the MIC alone ([4]; Strain APH2″-AAC6′, Table 9) was 512 µg/mL. It also gave an MIC (CA MRSA W45; [5]) of 512 µg/mL, an FIC (CA MRSA W45; W45, ECG with Kur) of 0.002 and an MIC combine (CA MRSA W45; W45, ECG with Kur) of 1 µg/mL. The FIC (CA MRSA W45; W45, ECG+Kur+Van) was 0.0004, the MIC combine (CA MRSA W45; W45, ECG+Kur+Van) was 0.25 µg/mL and the MIC alone (CA MRSA W45; W45, Table 5) was 512 µg/mL.
